Patent US20080234183A1, “Cell Penetrating Peptides” (priority 2002, published 2008)
Where no end group is shown, it is not given here. [ ]: non-standard residue; d: D form.

Legend:
[1] = system: porcine left anterior descending coronary artery; experiment: Blood vessel contraction measurement
Method: Dissected porcine hearts (260-390 g) were transported from local slaughterhouse to the laboratory in ice-cold Krebs-Henseleit solution (119 mM NaCl, 23.8 mM NaHCO3, 3 mM KCl, 1.14 mM NaH2PO4, 1.63 mM CaCl2, and 16.5 mM glucose). Left anterior descending coronary artery and great cardiac vein were isolated. Part of each blood vessel was used immediately after Isolation for contraction assays while part of it was kept frozen in liquid nitrogen for the membrane preparation. In some experiments blood vessels in which endothelium was mechanically removed were used. The same procedure was used also for the preparation of human umbilical blood vessels; umbilical cords were obtained from Obstetric Clinic of Ljubljana Clinical Center, Slovenia.
The measurements were performed as already described (20). Rings (5 mm wide) of blood vessels were cut and mounted into 10 ml tissue chamber filled with Krebs-Henseleit solution (37° C.; pH=7.4) which was oxygenated with the mixture of ^95% O2 and 5% CO2. Initial tension of 50 mN was applied and after equilibration 30 mM KCl was added to obtain stable Isometric contraction. The presence of endothelium was verified with substance P. After washing out of KCl and substance P and after the equilibration of the system was restored, test peptide was added into the tissue chamber and blood vessel contraction was recorded.

[2] = system: pancreatic islets; experiment: Insulin release from isolated pancreatic islets; assay type: cell-based, rat
Method: Effects of the peptides on insulin secretion were assessed in pancreatic islets from male Wistar rats weighing 200-250 g. Islets were isolated aseptically by colagenase digestion, and then cultured overnight at 37° C. in RPMI 1640 culture medium supplemented with 10% heat-inactivated fetal calf serum. After culturing, analysis of insulin secretion was performed by incubation at 37° C. for 1 h in batches of 3 islets, each in 300 μl of Krebs-Ringer bicarbonate buffer with 10 mM Hepes and 2 mg/ml bovine serum albumin, pH 7.4. The incubation medium contained either 3.3 or 16.7 mM glucose, with or without peptide. In one experimental series, batches of 5×10^5 Rin m5F cells were incubated under similar conditions, except that glucose was omitted from the medium. Aliquots of the incubation medium were taken for radioimmunoassay of Insulin. Insulin secretion is expressed as IU insulin/islet/h and IU insulin/5×10^5 cells/h, respectively. Statistical significance was evaluated with the Student's t-test with p<0.05 regarded as significant

[3] = system: N2A mouse neuroblastoma cells; experiment: Cellular internalisation assay of fluorescein-labelled APP and PS peptides; assay type: cell-based; settings: for cellular internalisation / cellular localisation: 10 μM, 37°; for cellular internalisation: 60 min
Method: Mouse neuroblastoma cells, N2A, were cultivated in Dulbecco's minimal essential medium with Glutamax-I, supplemented with 10% (v/v) fetal bovine serum, penicillin (100 U/ml) and streptomycin (100 μg/ml).
The cells used for Internalisation were seeded out on round glass coverslips in 24well plates. One day post seeding, the cells were semi confluent, and the medium was changed to serum-free medium. The fluorescein-labelled peptides were added, with a final concentration of 10 μM. After 60 min of incubation at 37°, the cells were washed 3 times with 1 ml of Hepes-Krebbs-Ringer-(HKR) buffer and fixed with 3% paraformaldehyde solution in phosphate-buffered saline solution (PBS) for 10 minutes. The cells were then washed 3 times with 1 ml of HKR-buffer, and the coverslips were mounted and sealed for microscopy studies.
The cell type used for the internalisation assays with the fluorescein'tagged peptides was N2A mouse neuroblastoma cells. This cell-line is commonly used in association with Alzheimer's disease studies, and serves as a good model cell-line for these internalisation assays where peptides derived from proteins involved in Alzheimer's disease were examined. These Internalisation assays were performed at 37° C., therefore the internalisation by endocytosis cannot be excluded.

[4] = In vivo effect of GOP on insulin release and blood glucose level; design: species or system Wistar rats
Method: Healthy male Wistar rats, weighing approximately 250 g, were fasted over-night. After an initial blood sample obtained by incision of the distal tail vein (0 min), GOP (M528, 100 nmol/kg; n=4) was injected intraperitoneally, followed by another i.p. injection of glucose (1 g/kg). Control rats (n=4) were injected with saline and glucose. Additional blood samples were taken from the tail vein after 10 and 30 min. Blood glucose levels were determined by a glucose oxidase method and plasma insulin levels by radioimmunoassay.

[5] = system: human Bowes melanoma cells; experiment: Cellular penetration of biotin-labelled peptide; assay type: cell-based
Method: The medium containing serum was exchanged for a serum-free medium and water solution of the peptide was added directly into the medium to reach the concentration of 10 μM. A negative control was always used, because living cells all the time have some biotin inside. To control cells pure water instead peptide solution were added, and further handled alike all other. The cells were incubated for 1 h at 37° C. or 4° C. in 5% CO2 enriched air. The cells were washed three times with PBS, fixed and permeabilised with methanol for 10 min at −20° C., washed again with PBS and Incubated for 1 h in a 5% (w/v) solution of fat-free milk in PBS in order to decrease non-specific binding. The peptides were visualised by staining with 0.1 μM streptavidin-FITC in the same solution for 1 hour at room temperature. The cell nuclei were visualised by staining with DNA with Hoechst 33258 (0.5 μg/ml) for 5 min, thereafter the coverslips were washed 3 times with PBS and mounted in 20% glycerol in PBS. The images were obtained by Zeiss Axioplan 2 microscope (Carl Zeiss Inc., Germany).

[6] = system: Bowes cells; experiment: Peptide uptake in attached Bowes cells, fluorescence in cell lysate; assay type: cell-based, human; settings: Fluoresceinyl peptide, 5 μM, 30 min, 37° C.
Method: Cells were detached with trypsin (Invitrogen, Sweden), dissolved in culture media and centrifuged (1000×g for 10 min at RT). The cells were resuspended, counted and aliqoted in HKR on Ice, 300 000 cells/tube. Abz-labelled peptide was incubated for 15 and 30 min together with the cells in suspension, on a shaking 37° C. water bath. To stop the uptake or outflow, trypsin solution was added for 3 min. The cells were spun down at 1000×g for 10 min at 4° C. The pellets were resuspended in HKR for fluorescence detection, or for the outflow samples, incubated again with peptide-free HKR. Fluorescence was read at 320/420 nm on a Spectramax Gemini XS (Molecular Devices, Calif.). The intracellular concentrations were calculated from a standard curve of Abz-labelled peptides. […] Additionally, a varianty of the same assay was applied: the cells were seeded in a 24well plate at a density of 100 000 cells/well, the day before. Cells are incubated at 5 μM peptide concentration for 30 min at 37° C. Trypsin treated, washed and lysed in hydrochloric acid. The fluorescence was measured as described for the suspension assay.
Human melanoma cells Bowes, were cultured in MEM using standard cell culturing techniques, and seeded at density of 100 000 cells/well in 24 well-plates the day before experiments were conducted.

[7] = system: N2A cells; assay type: cell-based, mouse
[8] = system: LoVo cells; experiment: Internalisation of biotinylated selCPPs, fluorescence microscopy; assay type: cell-based, human
Method: One aspect of the present invention thus comprises a method for screening the cellular uptake of a broad variety of CPPs in vitro, wherein cells are grown on glass cover slips to suitable, such as 50%, density, whereupon the media is changed to serum free and a blotinylated peptide solution is added. The cells are then incubated, washed, fixed and the peptides are visualised by staining with, e.g. avidin-FITC, or streptavidin-TRITC, and the cell nuclei are counterstained, e.g. with Hoechst. Images are preferably obtained with a fluorescence microscope and evaluated.
FIG. 5. Example of inactivated selCPP. Internalisation of YTA-2 (A) compared to YTA-2 ps (B) In LoVo cells, both biotynilated peptides detected by TRITC-avidin at 37° C.
The cells were grown on round glass cover slips (12 mm, GTF, Sweden) in a 24-well plate to approximately 50% confluence. The media was changed to serum free and the biotinylated peptide solutions were added. The cells were incubated for 30 min at 37 or 4° C. The cells were washed twice with PBS, fixed with 4% paraformaldehyde solution 15 min at room temperature (dark) and then permeabilised in 30 mM HEPES buffer containing 0.5% w/v Triton X-100, 3 min on Ice. Sites for unspecific binding were blocked In PBS containing 3% (w/v) bovine serum albumin, overnight at 4° C. The peptides were visualised by staining with avidin-FrTC or streptavidin-TRITC (Molecular Probes, the Netherlands). The cell nuclei were stained with Hoechst 33258 (0.5 μg/ml) for 5 min, after which the cover slips were washed 3 times with PBS and mounted in 25% glycerol in PBS. The images were obtained with a Leica DM IRE2 fluorescence microscope (Leica Microsystem., Sweden) and processed in PhotoShop 6.0 software (Adobe Systems Inc., CA) (See e.g. FIG. 38-40).

COc1ccc2c(c1)CC[C@@H]1[C@@H]2CC[C@]2(C)[C@@H](NCCCCCCN3C(=O)C=CC3=O)CC[C@@H]12 [Peptide U73122]
effect on tonus of the artery ([1]; 30 μM): did not affect tonus | effect on M511-induced contraction after posterior administration ([1]; 30 μM, 16 μM M511): did not modify blood vessel contraction | decrease of the effect of M511 ([1]; 30 μM, added 30 minutes prior to 16 μM M511): more than 50%

IAIAKLAA amide (IAIAKLAA-NH2) [GOP11]
Insulin release at 16.7 mM glucose ([2]; 10 μM peptide): inh− | Insulin release at 3.3 mM glucose ([2]; 100 μM peptide): inh− | Insulin release at 16.7 mM glucose ([2]; 100 μM peptide): inh−−

IAIAKLKA amide (IAIAKLKA-NH2) [GOP4]
Insulin release at 16.7 mM glucose ([2]; 10 μM peptide): inh−− | Insulin release at 3.3 mM glucose ([2]; 100 μM peptide): inh− | Insulin release at 16.7 mM glucose ([2]; 100 μM peptide): inh−

IATVIFITLVMLKKK [APP (712-726) V717F mutant]
aggregation on addition to the 24-well plate [3]: formed aggregates | cellular internalisation [3]: do not reveal any no uptake

IATVIVITLVMLKKK [APP (712-726) WT]
aggregation on addition to the 24-well plate [3]: formed aggregates | cellular internalisation [3]: do not reveal any no uptake

IVIAKLAA amide (IVIAKLAA-NH2) [GOP5]
Insulin release at 16.7 mM glucose ([2]; 10 μM peptide): inh− | Insulin release at 3.3 mM glucose ([2]; 100 μM peptide): no | Insulin release at 16.7 mM glucose ([2]; 100 μM peptide): no

IVIAKLKA amide (IVIAKLKA-NH2) [GOP]
stimulation of insulin release ([2]; 10 μM GOP, 3.3 mM glucose, p<0.001): 5 fold | Insulin release at 16.7 mM glucose ([2]; 10 μM peptide): stim+ | Insulin release at 3.3 mM glucose ([2]; 100 μM peptide): no | Insulin release at 16.7 mM glucose ([2]; 100 μM peptide): stim++ | stimulation of insulin release ([2]; 1 and 10 FM GOP, 16.7 mM glucose): 4 fold | plasma insulin ([4]; 100 nmol/kg i.p. + glucose 1 g/kg, after 10 min, vs control rats p<0.05): increased significantly | blood glucose levels ([4]; 100 nmol/kg i.p. + glucose 1 g/kg, at 10 min, vs control rats p<0.02): significantly lower | insulin and glucose levels vs control rats ([4]; after 30 min): no differences

IVIAKLKANLMCKTCRLAK-amide (IVIAKLKANLMCKTCRLAK-NH2; cysteine pairing not given here) [Peptide M569]
cellular penetration ([5]; 37° C. and 4° C.): temperature independent penetration | cellular localisation ([5]; Bowes cells, 37° C.): both cytosolic and plasma membrane localisation

IVIAKLRA amide (IVIAKLRA-NH2) [GOP3]
Insulin release at 16.7 mM glucose ([2]; 10 μM peptide): stim+ | Insulin release at 3.3 mM glucose ([2]; 100 μM peptide): stim++ | Insulin release at 16.7 mM glucose ([2]; 100 μM peptide): stim++

IVVSKLKA amide (IVVSKLKA-NH2) [GOP16]
Insulin release at 16.7 mM glucose ([2]; 10 μM peptide): no | Insulin release at 3.3 mM glucose ([2]; 100 μM peptide): no | Insulin release at 16.7 mM glucose ([2]; 100 μM peptide): no

KKAAQIRSQVMTHLRVI [APP (521-536)]
cellular localisation [3]: both in the nucleus and the membrane | cellular internalisation [3]: has cell-penetrating abilities

LRSWRVIIRNGQR [LRSW-3]
% of added fluorescence in cell lysate [6]: 1.9%

LRSWVISRSIRKAA [LRSW-1]
% of added fluorescence in cell lysate [6]: 1.4%

MANLGYWLLALFVTMWTDVGLCKKRPKP [mouse PrPC(1-28)]
cargo delivery [7]: ability to carry a cargo avidin into cells | cell-penetrating activity [7]: is indeed a CPP | cellular localization [7]: perinuclear localization

SGESLAY-YTAIAWVKAFIRKLRK (SGESLAYYTAIAWVKAFIRKLRK) [YTA-2ps]
% of added fluorescence in cell lysate [6]: 3.5% | Comment (staining/localisation) [8]: bind the plasma

Sar^1-Thr^8-angiotensin II
effect on contraction induced by M511 ([1]; 45 μM antagonist): unable to affect | effect on contraction induced by angiotensin II ([1]; 45 μM antagonist): able to revert

TP10 [reference compound]
% of added fluorescence in cell lysate [6]: 1.8%

Transportan [reference compound]
% of added fluorescence in cell lysate [6]: 10.5%

VATKSVSVFYTRK [presenilin-1 (97-109) deletion analogue]
cellular localisation [3]: mostly localised in the cytosole | cellular internalisation [3]: showed cell-penetrating abilities

VVLYKYRCYKVI [presenilin-1 (151-162)]
cellular internalisation [3]: Identical increase in fluorescence

all-D-(IVIAKLKA) amide ([dI][dV][dI][dA][dK][dL][dK][dA]-NH2; N-terminus assumed; SMILES CC[C@@H](C)[C@@H](N)C(=O)N[C@@H](C(=O)N[C@@H](C(=O)N[C@H](C)C(=O)N[C@H](CCCCN)C(=O)N[C@H](CC(C)C)C(=O)N[C@H](CCCCN)C(=O)N[C@H](C)C(N)=O)[C@H](C)CC)C(C)C) [GOP6]
Insulin release at 16.7 mM glucose ([2]; 10 μM peptide): inh− | Insulin release at 3.3 mM glucose ([2]; 100 μM peptide): stim+ | Insulin release at 16.7 mM glucose ([2]; 100 μM peptide): no

angiotensin: angiotensin II, AT1 receptor agonist
contraction effect compared with 30 mM KCl ([1]; 1 μM): almost the same as the effect of 30 mM KCl
